Our source for the IC50 and Activity values is ChEMBL document CHEMBL3232912, “Anti-inflammatory diterpenoids from the roots of Euphorbia ebracteolata” (J Nat Prod, 2014).

Data set [1] concerns RAW264.7. Put plainly: Antiinflammatory activity in mouse RAW264.7 cells assessed as inhibition of LPS-induced nitric oxide production after 24 hrs by Griess method. The data set is classed as functional, cell-based. The note with it: RAW264.7, 24 h. A general note: The Griess reaction detects nitrite, a stable product of nitric oxide.
The subject of data set [2] is RAW264.7. Kind of data set: Cytotoxicity against mouse RAW264.7 cells at IC50 by MTT assay. The format is cell-based.

With `C=C[C@]1(C)CC[C@@]2(CO)C3=CC(=O)O[C@@H]3C(C)(C)CC[C@@H]2C1`, the IC50 (usually the concentration needed to halve the response being measured) in the data set with RAW264.7 [1] stood at 7.5 µM. The Activity result in the data set with RAW264.7 [2] was “Non-toxic”. Taken in the same sequence, the figures for `C=C[C@]1(C)CC[C@@]2(C)c3cc(O)c(O)c(C)c3C[C@H](O)[C@@H]2C1` were 2.44 µM and “Non-toxic”. The corresponding values for `C=C[C@]1(C)CC[C@@]2(C)C3=CC(=O)[C@H](O)[C@](C)(CO)[C@@H]3CC[C@@H]2C1` are 1.02 µM and “Non-toxic”. For the compound `C=C[C@]1(C)CC[C@@]2(C)C3=C[C@@H](O)[C@H](O)C(C)(C)[C@@H]3CC[C@@H]2C1`, the 50% inhibitory concentration (IC50) in the data set with RAW264.7 [1] is 24.3 µM. For the same compound, in the data set on RAW264.7 [2], the Activity entry is given as “Non-toxic”.

Consider `C=C[C@]1(C)CC[C@@]2(C)c3cc(O)c(O)c(C)c3CC[C@@H]2C1`, for which the IC50 in the data set with RAW264.7 [1] was 3.33 µM. Also, the Activity entry in the data set with RAW264.7 [2] is listed as “Non-toxic”. With `COc1ccc2c(c1)c(CC(=O)O)c(C)n2C(=O)c1ccc(Cl)cc1` [INDOMETHACIN], the IC50 in the data set on RAW264.7 [1] was 16.7 µM.

With `C=C[C@]1(C)CC[C@]2(C)[C@H](CC[C@H]3[C@@](C)(CO)C(=O)C=C[C@@]32O)C1`, in the data set with RAW264.7 [1], the IC50 was determined as 7.32 µM. In addition, the Activity entry in the data set on RAW264.7 [2] is reported as “Non-toxic”.

`C=C[C@]1(C)CC[C@@]2(C)C3=CC(=O)O[C@@H]3C(C)(C)C[C@H](O)[C@@H]2C1`: the half-maximal inhibitory concentration (IC50) with RAW264.7 [1] was 6.49 µM. The Activity result with RAW264.7 [2] was “Non-toxic”. Taken in the same sequence, the figures for `C=C[C@]1(C)CC[C@@]2(C)C3=CC[C@H](O)[C@](C)(CO)[C@@H]3CC[C@@H]2C1` were 7.29 µM and “Non-toxic”. Taken in the same sequence, the figures for `C=C[C@]1(C)CC[C@]2(C)[C@H](CC[C@H]3[C@@](C)(CO)C(=O)C=C[C@]32O)C1` were 19 µM and “Non-toxic”. The corresponding values for `C=C[C@]1(C)CC[C@@]2(C)C3=C[C@H](O)[C@H](O)C(C)(C)[C@@H]3CC[C@@H]2C1` are 12.5 µM and “Non-toxic”. Take `C=C[C@]1(C)CC[C@@]2(CO)C3=CC[C@H](O)C(C)(C)[C@@H]3CC[C@@H]2C1`: the 50% inhibitory concentration (IC50) in the data set with RAW264.7 [1] worked out at 5.57 µM. Further, the Activity entry in the data set on RAW264.7 [2] is “Non-toxic”. On to `C=C[C@]1(C)CC[C@@]2(C)C3=CC[C@H](O)C(C)(C)[C@@H]3C[C@H](O)[C@@H]2C1`, for which the IC50 with RAW264.7 [1] came out at 5.51 µM. Moreover, in the data set on RAW264.7 [2], the Activity result was “Non-toxic”. On to `C=C[C@]1(C)CC[C@@]2(C)C3=CC(=O)[C@@H]4C[C@]4(C)[C@]3(O)CC[C@@H]2C1`, for which the half-maximal inhibitory concentration (IC50) in the data set with RAW264.7 [1] stood at 2.76 µM. In the data set with RAW264.7 [2], the Activity result is “Non-toxic”.
